Assay results: the supplement of paper PMC7017272
± gives the standard deviation of the averaged measurements.

Columns and labels:
Settings in all cases: treatment time: 3 days
[1] = test system: UT-SCC-40; assay: drug sensitivity score (DSS); higher = more sensitive; extreme values may be limits of the assay
How it was run: (§1)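 The FIMM pipeline was used to fit percent-inhibition dose–response curves, giving IC50, maximal inhibition and drug sensitivity score. Input data were CellTiter-Glo 2.0 luminescence readings, normalised to vehicle (0.1% DMSO) and cell-killing control wells, from HPV-negative HNSCC cell lines seeded at 500 cells/well in 384-well plates. Cells sat on plastic, on Matrigel or Myogel coatings (500 µg/mL), or within Matrigel or Myogel plus rat collagen I, and received compounds at five 10-fold concentrations for 3 days.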

[2] = test system: UT-SCC-44; assay: as above
How it was run: as §1

[3] = test system: UT-SCC-73; assay: as above
How it was run: as §1

[4] = test system: UT-SCC-81; assay: as above
How it was run: as §1

[5] = test system: UT-SCC-42B; assay: as above
How it was run: as §1

[6] = test system: UT-SCC-42A; assay: as above
How it was run: as §1

[7] = test system: UT-SCC-8; assay: as above
How it was run: as §1

[8] = test system: UT-SCC-28; assay: as above
How it was run: as §1

[9] = test system: UT-SCC-106A; assay: as above
How it was run: as §1

[10] = test system: UT-SCC-40; assay: maximal % inhibition of viability relative to DMSO; higher = stronger effect
Method: (§2)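 HNSCC cell lines (500 cells/well, 384-well) were cultured on plastic, on top of (2D) or embedded (3D) in Matrigel or human leiomyoma matrix Myogel (500 ug/mL; Myogel 3D mixed with rat collagen I). Cells were treated for 3 days with 5 ten-fold concentrations of each drug, and viability was read by CellTiter-Glo. Viability was normalised to DMSO and benzethonium chloride controls and fitted with the FIMM DSRT pipeline to give IC50 (nM), maximal % inhibition and DSS. Suffixes _1/_2/_3 are replicates. Only inhibition-mode (IC50) fits are kept.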

[11] = test system: UT-SCC-44; assay: as above
Method: as §2

[12] = test system: UT-SCC-73; assay: as above
Method: as §2

[13] = test system: UT-SCC-81; assay: as above
Method: as §2

[14] = test system: UT-SCC-42B; assay: as above
Method: as §2

[15] = test system: UT-SCC-42A; assay: as above
Method: as §2

[16] = test system: UT-SCC-8; assay: as above
Method: as §2

[17] = test system: UT-SCC-28; assay: as above
Method: as §2

[18] = test system: UT-SCC-14; assay: as above
Method: as §2

[19] = test system: UT-SCC-106A; assay: as above
Method: as §2

[20] = test system: UT-SCC-24B; assay: as above
Method: as §2

[21] = culture condition: embedded in Matrigel
[22] = culture condition: embedded in Myogel + collagen I
[23] = culture condition: on top of Matrigel
[24] = culture condition: on top of Myogel
[25] = culture condition: plastic 2D (no matrix)

SMILES: C#Cc1cccc(Nc2ncnc3cc(OCCOC)c(OCCOC)cc23)c1 [Erlotinib]
- drug sensitivity score [1, 21]: 0.333 ± 0.31 DSS
- drug sensitivity score [1, 22]: 1.97 ± 3.4 DSS
- drug sensitivity score [1, 23]: 0 DSS
- drug sensitivity score [1, 24]: 0 DSS
- drug sensitivity score [1, 25]: 0.0333 ± 0.058 DSS
- drug sensitivity score [2, 21]: 0 DSS
- drug sensitivity score [2, 22]: 0.133 ± 0.23 DSS
- drug sensitivity score [2, 23]: 0 DSS
- drug sensitivity score [2, 24]: 0.0667 ± 0.12 DSS
- drug sensitivity score [2, 25]: 0.0667 ± 0.12 DSS
- drug sensitivity score [3, 21]: 0.3 ± 0.3 DSS
- drug sensitivity score [3, 22]: 1.17 ± 2 DSS
- drug sensitivity score [3, 23]: 0 DSS
- drug sensitivity score [3, 24]: 0.233 ± 0.4 DSS
- drug sensitivity score [3, 25]: 0 DSS
- drug sensitivity score [4, 21]: 10.4 ± 3.8 DSS
- drug sensitivity score [4, 22]: 0 DSS
- drug sensitivity score [4, 23]: 5.17 ± 2.1 DSS
- drug sensitivity score [4, 24]: 0 DSS
- drug sensitivity score [4, 25]: 0.2 ± 0.27 DSS
- drug sensitivity score [5, 21]: 2.4 ± 1.4 DSS
- drug sensitivity score [5, 23]: 1 ± 1.7 DSS
- drug sensitivity score [5, 24]: 0 DSS
- drug sensitivity score [5, 25]: 0 DSS
- drug sensitivity score [6, 21]: 1.47 ± 2 DSS
- drug sensitivity score [6, 22]: 0 DSS
- drug sensitivity score [6, 23]: 2.73 ± 2.8 DSS
- drug sensitivity score [6, 24]: 0.1 ± 0.1 DSS
- drug sensitivity score [6, 25]: 1.73 ± 1.5 DSS
- drug sensitivity score [7, 21]: 7.57 ± 0.46 DSS
- drug sensitivity score [7, 22]: 0 DSS
- drug sensitivity score [7, 23]: 5.63 ± 0.65 DSS
- drug sensitivity score [7, 24]: 3.4 ± 2.5 DSS
- drug sensitivity score [7, 25]: 4.2 ± 1.1 DSS
- drug sensitivity score [8, 21]: 0 DSS
- drug sensitivity score [8, 22]: 1.27 ± 2.2 DSS
- drug sensitivity score [8, 23]: 0 DSS
- drug sensitivity score [8, 25]: 0 DSS
- drug sensitivity score [9, 21]: 1.43 ± 0.8 DSS
- drug sensitivity score [9, 22]: 0 DSS
- drug sensitivity score [9, 23]: 1.53 ± 2.1 DSS
- drug sensitivity score [9, 24]: 0 DSS
- drug sensitivity score [9, 25]: 1.97 ± 1.7 DSS
- maximal % inhibition of viability [10, 21]: 18.6 ± 8.3%
- maximal % inhibition of viability [10, 22]: 11.2 ± 9.4%
- maximal % inhibition of viability [10, 23]: 7.93 ± 2.4%
- maximal % inhibition of viability [10, 24]: 7.8 ± 4.5%
- maximal % inhibition of viability [10, 25]: 9.97 ± 3.5%
- maximal % inhibition of viability [11, 21]: 6.07 ± 5.3%
- maximal % inhibition of viability [11, 22]: 10 ± 9.8%
- maximal % inhibition of viability [11, 23]: 14.1 ± 8.5%
- maximal % inhibition of viability [11, 24]: 20.4 ± 11%
- maximal % inhibition of viability [11, 25]: 15.9 ± 13%
- maximal % inhibition of viability [12, 21]: 11.2 ± 8.1%
- maximal % inhibition of viability [12, 22]: 13.6 ± 19%
- maximal % inhibition of viability [12, 23]: 13.9 ± 3.5%
- maximal % inhibition of viability [12, 24]: 9.4 ± 5.2%
- maximal % inhibition of viability [12, 25]: 5.97 ± 2.2%
- maximal % inhibition of viability [13, 21]: 77.1 ± 4.2%
- maximal % inhibition of viability [13, 22]: 6.5 ± 5.1%
- maximal % inhibition of viability [13, 23]: 62 ± 6.1%
- maximal % inhibition of viability [13, 24]: 15.7 ± 4.9%
- maximal % inhibition of viability [13, 25]: 12.4 ± 3.9%
- maximal % inhibition of viability [14, 21]: 36.7 ± 12%
- maximal % inhibition of viability [14, 23]: 13.7 ± 13%
- maximal % inhibition of viability [14, 24]: 4.07 ± 4.7%
- maximal % inhibition of viability [14, 25]: 4.5 ± 0.98%
- maximal % inhibition of viability [15, 21]: 23.9 ± 23%
- maximal % inhibition of viability [15, 22]: 9.7 ± 4.9%
- maximal % inhibition of viability [15, 23]: 32.1 ± 18%
- maximal % inhibition of viability [15, 24]: 12.6 ± 2.3%
- maximal % inhibition of viability [15, 25]: 20.6 ± 17%
- maximal % inhibition of viability [16, 21]: 67.3 ± 28%
- maximal % inhibition of viability [16, 22]: 14.7 ± 22%
- maximal % inhibition of viability [16, 23]: 55.5 ± 29%
- maximal % inhibition of viability [16, 24]: 21.4 ± 0.72%
- maximal % inhibition of viability [16, 25]: 40.5 ± 14%
- maximal % inhibition of viability [17, 21]: 11.3 ± 9.9%
- maximal % inhibition of viability [17, 22]: 14 ± 5.9%
- maximal % inhibition of viability [17, 23]: 12.2 ± 3.6%
- maximal % inhibition of viability [17, 25]: 8.37 ± 7.3%
- maximal % inhibition of viability [18, 21]: 29.5 ± 7.8%
- maximal % inhibition of viability [18, 22]: 9.87 ± 4.7%
- maximal % inhibition of viability [18, 23]: 9.6 ± 10%
- maximal % inhibition of viability [18, 24]: 11.6 ± 10%
- maximal % inhibition of viability [18, 25]: 8.77 ± 15%
- maximal % inhibition of viability [19, 21]: 25.1 ± 5.3%
- maximal % inhibition of viability [19, 22]: 10.4 ± 0.53%
- maximal % inhibition of viability [19, 23]: 23.6 ± 11%
- maximal % inhibition of viability [19, 24]: 2.57 ± 2.4%
- maximal % inhibition of viability [19, 25]: 19.6 ± 7.3%
- maximal % inhibition of viability [20, 21]: 76.5 ± 0.95%
- maximal % inhibition of viability [20, 22]: 67.5 ± 6.2%
- maximal % inhibition of viability [20, 23]: 74.4 ± 3%
- maximal % inhibition of viability [20, 24]: 59.3 ± 5%
- maximal % inhibition of viability [20, 25]: 80.9 ± 1.6%
